In patent publication US20260250325A1, “Antiviral Polypeptide Membrane Fusion Inhibitor, and Preparation Method and Application Thereof” (priority 2025, published 2026):
Read-outs that look alike come from different tables or passages of the source. Where a SMILES comes first, the peptide text is derived from it. The star is where a group is joined. X1 = CC(C)CCCC(C)C1CCC2C3CC=C4CC(OC(=O)CCC(=O)*)CCC4(C)C3CCC12C

Legend:
[1] = Cytotoxicity test in HEp-2 cells (CCK8 cell viability); type: cell-based; conditions: human
Description: (§1) Human Epithelial Pharyngeal Carcinoma Cells (HEp-2) were from the American Type Culture Collection (ATCC), with a catalog number CCL-23. The cells were cultured in a DMEM culture solution in which 10% fetal bovine serum, 1% sodium pyruvate, 1% nonessential amino acids, 2 mM glutamine, 100 U/mL penicillin, and 100 μg/mL streptomycin were added. The RSV A long virus strain was from the ATCC, with a catalog number VR-26.
A cytotoxicity test and an antiviral test were performed in parallel. The HEp-2 cells were inoculated in the microplate at a density of 30,000 cells per well, and cultured overnight in the 37° C. incubator with 5% CO2. On the next day, the diluted test sample was added. The cell control (cells, without compound treatment) and a culture solution control (culture solution only, without cell or compound treatment) were set. A final concentration of DMSO in the culture solution was 0.5%. The cells were cultured for 1 day in the 37° C. incubator with 5% CO2. Cell viability was detected by using a cell viability detection kit CCK8.
(§2) The raw data for plaque counts and cell viability tests were used for analyzing the antiviral activity and cytotoxicity of the test samples, respectively. A calculation formula was shown as follows.
cell survival rate=(sample value-culture medium control average value)/(cell control average value-culture medium control average value)×100
(§3) Non-linear fitting analysis was performed on the inhibition rate of the sample by using GraphPad Prism (version 10), so as to calculate the IC50 and CC50 values for the sample.
CC50: in the in-vitro antiviral activity experiment, CC50 was used to measure the toxicity of the compound to be tested to the Hep-2 cells. To be precise, when the compound to be tested was at a specific concentration, 50% of the Hep-2 cells was caused to die, and this concentration was defined as the CC50. A fitting formula was log (inhibitor) vs. response-Variable slope (four parameters).

[2] = system: RSV A long virus strain; type: cell-based
Description: In this embodiment, an RSV-A long virus strain was used as an infection virus in the present disclosure. The anti-RSV activity of the synthesized polypeptide was determined through CPE detection.
The inhibitory activity of the compounds of Table 1-1-Table 1-5, positive polypeptide in Table 1-11, and positive control T-118 against the RSV-A long virus strain was detected.
as §1
This study used a plaque reduction experiment to detect the in-vitro activity of a test sample against the RSV A long virus strain. The test sample and a control compound were tested at 8 concentrations in duplicated wells. The HEp-2 cells were digested with trypsin and then diluted to a concentration of 300,000 cells per milliliter by using an experimental culture solution. The diluted cells were added to a 96-well cell test board, with 100 μL per well, corresponding to 30000 cells per well. The cells were cultured overnight in a 37° C. incubator with 5% CO2. On the second day, the test sample was diluted in an experimental culture medium at a fold ratio. The sample diluted at a fold ratio and an equal volume of virus (100 PFU per well) were well mixed and incubated at 37° C. in 5% CO2 for 1 h. Then, the culture solution in the 96-well cell test board was discarded, the sample virus mixed solution (200 μL) was added to the 96-well cell culture plate, and incubated at 37° C. in 5% CO2 for 2 hours. After 2 h, the sample virus mixed solution was discarded, and 200 μL of maintenance culture medium containing 0.8% CMC and the corresponding concentration of the test sample was added. A cell control (cells, without compound treatment or viral infection) and a viral control (cell infection virus, without compound treatment) were set. The cells were cultured for 1 day in the 37° C. incubator with 5% CO2. One day after viral infection, the culture medium was discarded, the cells were fixed with 4% paraformaldehyde, and then permeabilization was performed with 0.5% Triton X-100. After the plate was washed with DPBS, an RSV-specific antibody (RSV antibody, diluted 1:3000) was added and incubated at 37° C. for 1 h. Then, a secondary antibody (donkey anti-goat IgG, diluted 1:500) and incubated at 37° C. for 1 h. The secondary antibody was discarded, a TrueBlue solution was added, dyeing was performed for 10 min; and the plate was washed with running water and then air-dried, and the number of spots in each well was counted by using a microplate imaging counter. Raw data was used for calculating the antiviral activity of the samples.
as §2
% inhibition rate=100−(sample value-cell control average value)/(virus control average value-cell control average value)×100%
as §3
IC50: in an in-vitro antiviral activity experiment, IC50 represented an inhibition ability indicator of a compound to be tested against the Hep-2 cells infected by the RSV A long virus strain.

[3] = HEp-2 cells, CCK8, 1 day, read-out: CC50
[4] = RSV A long virus strain, HEp-2 cells, plaque reduction, 1 day, read-out: IC50

Row | IC50 [2] [µM] | SMILES | CC50 at 1 day [1] [µM] | CC50 at 1 day [1, 3] [µM] | IC50 [2, 4] [µM]
1 | > 8 | CC[C@H](C)[C@H](NC(=O)[C@H](CO)NC(=O)[C@H](CCC(=O)O)NC(=O)[C@H](CC(N)=O)NC(=O)[C@@H](NC(=O)[C@H](CCCCN)NC(=O)[C@H](CO)NC(=O)[C@H](CO)NC(=O)[C@H](C)NC(=O)[C@H](CC(=O)O)NC(=O)[C@H](CC(N)=O)NC(=O)[C@@H](NC(=O)[C@H](CCC(=O)O)NC(=O)[C@H](CC(C)C)NC(=O)[C@H](CCCNC(=N)N)NC(=O)[C@H](Cc1ccccc1)NC(=O)[C@H](C)NC(=O)[C@H](CC(=O)O)NC(=O)[C@H](C)NC(C)=O)C(C)C)[C@@H](C)CC)C(=O)N[C@@H](CCC(=O)O)C(=O)N[C@@H](CCC(=O)O)C(=O)N[C@@H](CO)C(=O)N[C@@H](CC(C)C)C(=O)N[C@@H](CC(C)C)C(=O)N[C@@H](CO)C(=O)N[C@@H](CC(C)C)C(=O)N[C@@H](CCC(=O)O)C(=O)N[C@@H](CCCCN)C(=O)N[C@@H](CC(C)C)C(=O)N[C@@H](Cc1c[nH]cn1)C(=O)N[C@@H](CC(N)=O)C(=O)N[C@H](C(=O)N[C@@H](CC(N)=O)C(=O)N[C@@H](C)C(=O)N[C@H](C(=O)N[C@@H](C)C(N)=O)[C@@H](C)O)C(C)C [Compound 6] (Ac-ADAFRLEVNDASSKINESIEESLLSLEKLHNVNATA-NH2) | > 8 | – | –
2 | > 8 | CC[C@H](C)[C@H](NC(=O)[C@H](Cc1ccccc1)NC(=O)[C@H](C)NC(=O)[C@H](CC(=O)O)NC(=O)[C@H](Cc1ccccc1)NC(C)=O)C(=O)N[C@@H](CCC(N)=O)C(=O)N[C@@H](CCC(=O)O)C(=O)N[C@H](C(=O)N[C@@H](CC(N)=O)C(=O)N[C@H](C(=O)N[C@@H](CC(N)=O)C(=O)N[C@@H](CCC(=O)O)C(=O)N[C@@H](CC(=O)O)C(=O)N[C@@H](CCC(N)=O)C(=O)N[C@@H](CO)C(=O)N[C@@H](CC(C)C)C(=O)N[C@@H](CCC(=O)O)C(=O)N[C@@H](CCC(N)=O)C(=O)N[C@@H](CO)C(=O)N[C@@H](CC(=O)O)C(=O)N[C@@H](CCC(=O)O)C(=O)N[C@@H](CC(C)C)C(=O)N[C@@H](CC(C)C)C(=O)N[C@@H](CC(C)C)C(=O)N[C@@H](CCC(=O)O)C(=O)N[C@@H](CC(C)C)C(=O)N[C@@H](Cc1c[nH]cn1)C(=O)N[C@@H](CC(C)C)C(=O)N[C@@H](CC(C)C)C(=O)N[C@@H](Cc1c[nH]cn1)C(=O)N[C@@H](CO)C(=O)N[C@@H](CC(C)C)C(=O)N[C@@H](CC(C)C)C(=O)N[C@@H](Cc1c[nH]cn1)C(N)=O)C(C)C)[C@@H](C)CC [Compound 7] (Ac-FDAFIQEINVNEDQSLEQSDELLLELHLLHSLLH-NH2) | > 8 | – | –
3 | – | CC[C@H](C)[C@H](NC(=O)[C@H](CO)NC(=O)[C@H](C)NC(=O)[C@H](CC(=O)O)NC(=O)[C@H](Cc1ccccc1)NC(C)=O)C(=O)N[C@@H](CCC(=O)O)C(=O)N[C@@H](CCC(=O)O)C(=O)N[C@H](C(=O)N[C@@H](CC(N)=O)C(=O)N[C@@H](CCCNC(=N)N)C(=O)N[C@@H](CCCNC(=N)N)C(=O)N[C@H](C(=O)N[C@@H](CCC(=O)O)C(=O)N[C@@H](CCC(=O)O)C(=O)N[C@@H](CO)C(=O)N[C@@H](CC(C)C)C(=O)N[C@@H](CCCNC(=N)N)C(=O)N[C@@H](CCCNC(=N)N)C(=O)N[C@H](C(=O)N[C@@H](CCC(=O)O)C(=O)N[C@@H](CCC(=O)O)C(=O)N[C@@H](CO)C(=O)N[C@@H](CC(=O)O)C(=O)N[C@@H](CCCNC(=N)N)C(=O)N[C@@H](CCCNC(=N)N)C(=O)N[C@@H](CC(C)C)C(=O)N[C@@H](CCC(=O)O)C(=O)N[C@H](C(=O)N[C@@H](CC(N)=O)C(=O)N[C@@H](CCCCN)C(=O)N[C@@H](CCCCN)C(=O)N[C@@H](C)C(=O)NCC(=O)N[C@@H](CO)C(=O)NCC(=O)N[C@@H](CO)C(=O)NCC(=O)N[C@@H](CCCCNC(=O)CCC(=O)OC1CCC2(C)C(=CCC3C2CCC2(C)C(C(C)CCCC(C)C)CCC32)C1)C(N)=O)C(C)C)[C@@H](C)CC)[C@@H](C)CC)C(C)C (stereo partly shown) [Compound 12] (Ac-FDASIEEVNRRIEESLRRIEESDRRLEVNKKAGSGSGK(X1)-NH2) | – | > 8 | 0.0284
4 | – | CC[C@H](C)[C@H](NC(=O)[C@H](C)NC(=O)[C@H](C)NC(=O)[C@H](CC(C)C)NC(=O)[C@H](CO)NC(=O)[C@H](CCC(N)=O)NC(=O)[C@H](CC(N)=O)NC(=O)[C@@H](NC(=O)[C@H](CCCCN)NC(=O)[C@H](CCC(=O)O)NC(=O)[C@H](CC(N)=O)NC(=O)[C@@H](NC(=O)[C@H](CCC(N)=O)NC(=O)[C@H](CO)NC(=O)[C@@H](NC(=O)[C@H](CO)NC(=O)[C@H](C)NC(=O)[C@H](CC(=O)O)NC(=O)[C@H](Cc1ccccc1)NC(=O)[C@H](CCC(=O)O)NC(=O)[C@H](CC(=O)O)NC(=O)[C@H](CO)NC(=O)[C@@H]1CCCN1C(=O)[C@H](Cc1ccccc1)NC(=O)[C@@H](NC(C)=O)C(C)C)[C@@H](C)CC)C(C)C)[C@@H](C)CC)C(=O)N[C@@H](CCCNC(=N)N)C(=O)N[C@@H](CCCCN)C(=O)N[C@@H](CO)C(=O)N[C@@H](CC(=O)O)C(=O)N[C@@H](CCC(=O)O)C(=O)N[C@@H](CC(C)C)C(=O)N[C@@H](CC(C)C)C(=O)N[C@@H](Cc1c[nH]cn1)C(=O)N[C@@H](CC(N)=O)C(=O)N[C@H](C(N)=O)C(C)C [Positive polypeptide 6, reference compound] (Ac-VFPSDEFDASISQVNEKINQSLAAIRKSDELLHNV-NH2) | – | > 10 | > 0.3
5 | – | CC[C@H](C)[C@H](NC(=O)[C@H](CO)NC(=O)[C@H](C)NC(=O)[C@H](CC(=O)O)NC(=O)[C@H](Cc1ccccc1)NC(C)=O)C(=O)N[C@@H](CCC(=O)O)C(=O)N[C@@H](CCC(=O)O)C(=O)N[C@H](C(=O)N[C@@H](CC(N)=O)C(=O)N[C@@H](CCCNC(=N)N)C(=O)N[C@@H](CCCNC(=N)N)C(=O)N[C@H](C(=O)N[C@@H](CCC(=O)O)C(=O)N[C@@H](CCC(=O)O)C(=O)N[C@@H](CO)C(=O)N[C@@H](CC(C)C)C(=O)N[C@@H](CCCNC(=N)N)C(=O)N[C@@H](CCCNC(=N)N)C(=O)N[C@H](C(=O)N[C@@H](CCC(=O)O)C(=O)N[C@@H](CCC(=O)O)C(=O)N[C@@H](CO)C(=O)N[C@@H](CC(=O)O)C(=O)N[C@@H](CCCNC(=N)N)C(=O)N[C@@H](CCCNC(=N)N)C(=O)N[C@@H](CC(C)C)C(=O)N[C@@H](CCC(=O)O)C(=O)N[C@@H](C)C(=O)N[C@@H](C)C(=O)N[C@@H](C)C(=O)N[C@@H](CCCCN)C(=O)N[C@@H](CCCCNC(=O)CCC(=O)OC1CCC2(C)C(=CCC3C2CCC2(C)C(C(C)CCCC(C)C)CCC32)C1)C(N)=O)[C@@H](C)CC)[C@@H](C)CC)C(C)C (stereo partly shown) [Compound 19] (Ac-FDASIEEVNRRIEESLRRIEESDRRLEAAAKK(X1)-NH2) | – | 8.3 | 0.0162
